The structures appear in SMILES notation.

In the assay the target is T1, stearoyl-CoA Δ9-desaturase (PfSCD, PFE0555w) (Plasmodium falciparum, UniProt Q8I0W9).
T1 construct: gene PF3D7_0511200; native enzyme in crude schizont lysate (500 µg total protein)
Kind of assay: cell-free desaturase assay in schizont lysates, […]-stearoyl-CoA to oleic acid, silver nitrate TLC. It counts as biochemical.

T1 sequence (Q8I0W9 entry or part of it, stated change not applied): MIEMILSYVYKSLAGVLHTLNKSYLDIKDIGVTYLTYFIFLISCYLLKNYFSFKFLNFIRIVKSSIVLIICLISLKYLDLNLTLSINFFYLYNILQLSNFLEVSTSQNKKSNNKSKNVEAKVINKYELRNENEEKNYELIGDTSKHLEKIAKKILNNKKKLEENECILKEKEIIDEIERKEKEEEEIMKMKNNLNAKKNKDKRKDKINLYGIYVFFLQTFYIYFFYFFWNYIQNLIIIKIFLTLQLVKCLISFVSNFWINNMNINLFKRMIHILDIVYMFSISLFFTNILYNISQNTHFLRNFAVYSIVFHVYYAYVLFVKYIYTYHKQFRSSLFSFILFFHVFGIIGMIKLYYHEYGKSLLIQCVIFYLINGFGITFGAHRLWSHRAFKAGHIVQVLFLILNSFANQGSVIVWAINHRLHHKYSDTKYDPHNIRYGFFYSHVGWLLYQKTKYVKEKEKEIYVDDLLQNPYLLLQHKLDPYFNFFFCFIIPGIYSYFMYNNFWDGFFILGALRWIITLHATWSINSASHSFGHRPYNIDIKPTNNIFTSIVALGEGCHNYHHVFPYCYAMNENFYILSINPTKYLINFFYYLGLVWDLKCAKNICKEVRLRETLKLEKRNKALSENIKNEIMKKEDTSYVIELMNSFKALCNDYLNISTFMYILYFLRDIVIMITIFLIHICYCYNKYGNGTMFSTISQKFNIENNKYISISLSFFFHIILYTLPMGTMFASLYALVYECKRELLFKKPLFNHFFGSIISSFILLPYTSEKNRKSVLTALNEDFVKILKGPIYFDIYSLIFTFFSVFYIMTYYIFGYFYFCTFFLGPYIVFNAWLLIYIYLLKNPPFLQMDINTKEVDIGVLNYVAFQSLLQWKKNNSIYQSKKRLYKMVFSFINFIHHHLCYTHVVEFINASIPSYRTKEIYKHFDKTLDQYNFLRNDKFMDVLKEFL

With `CCCCCCCCC1=C(CCCCCCCC(=O)OC)C1` [MeSter, methyl sterculate], 105 µM corresponded to half-maximal inhibition (IC50).
